Holding throughout (assay): kinetic fluorescence endonuclease assay, purified enzyme
Assay type in all cases: biochemical

The target in one test is R177A APE1 (Homo sapiens, UniProt P27695, R177A).
Test [1] addresses T1, apurinic/apyrimidinic endonuclease 1 (APE1) (Homo sapiens, UniProt P27695).
Test [2] concerns the target T1, apurinic/apyrimidinic endonuclease 1 (APE1). The source holds these as a separate data set.

T1 sequence (P27695 whole entry): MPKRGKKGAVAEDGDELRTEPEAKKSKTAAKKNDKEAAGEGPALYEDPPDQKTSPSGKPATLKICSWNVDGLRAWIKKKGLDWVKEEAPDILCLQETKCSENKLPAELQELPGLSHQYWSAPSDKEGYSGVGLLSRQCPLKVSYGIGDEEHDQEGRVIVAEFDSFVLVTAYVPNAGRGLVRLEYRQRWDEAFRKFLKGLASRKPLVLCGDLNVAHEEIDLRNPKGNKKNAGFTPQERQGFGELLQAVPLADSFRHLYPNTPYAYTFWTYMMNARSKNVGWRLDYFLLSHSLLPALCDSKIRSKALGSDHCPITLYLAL
Chain of R177A APE1 (P27695 whole entry R177A): as the sequence (P27695 whole entry) above, with R177A counted along it

In the case of `O=C(NCCO[N+](=O)[O-])c1cccnc1` [nicorandil], the EC50 on R177A APE1 came to 2.2 µM; in test [1], 0.82 µM.
Take `O=C(NCCO)c1cccnc1` [N-(2-hydroxyethyl)nicotinamide]: inhibition in test [2] was half-maximal at 65 µM (IC50).

As a reminder, the EC50 is the concentration that produces a half-maximal response. A word on the IC50: it is the midpoint of a concentration-inhibition curve.
